Legend:
TiL-1 cells = test: ROS scavenging: intracellular ROS after irradiation (DCF-DA); assay type: cell-based; details: compound added 3 h before irradiation; DCF-DA 25 μM 1 h before; measured immediately after irradiation
Experimental: FIGS. 5A and 5B show the effect of CPA on ROS scavenging.
The effect of CPA on ROS scavenging was also evaluated. […] The intracellular ROS was measured immediately after irradiation in TiL-1 cells using 2′,7′-dichlorofluorescein diacetate (DCF-DA, Invitrogen). The compound and DCF-DA probe at 25 μM was added 3 h and 1 h before irradiation, respectively.

bone marrow cells = test: Granulocyte-macrophage colony forming units from bone marrow after total body irradiation; assay type: in vivo, mice; details: 6 mg/kg twice prior to irradiation; bone marrow collected 3 d after TBI, counted 8-9 d after plating; p<0.05 IR vs IR+CPA
Experimental: (§1) FIGS. 4A and 4B show the effect of CPA on animal survival against a lethal dose total body irradiation (TBI). FIG. 4A: Two oral administrations of CPA at 24 h and 1 h prior to irradiation at 8 Gy. FIG. 4B: CPA at 6 mg/kg or vehicle control was administered twice prior to irradiation as (FIG. 4A) along with un-irradiated control mice for Granulocyte-macrophage colony forming units.
CPA at 6 mg/kg or vehicle control was administered twice prior to irradiation as described above along with un-irradiated control mice for Granulocyte-macrophage colony forming units.

TiL1 cells = test: Cell viability assay with irradiated TiL1 cells (ATPlite); assay type: cell-based; details: 2Gy, ATPlite 24 hours after irradiation, normalized to vehicle control
Experimental: FIGS. 3A and 3B show radiation dose-responses of irradiated TiL1 cells treated with cyclopiazonic acid (CPA). Cell viability assay with TiL1 cells was measured using ATPlite reagent 24 h after irradiation with 2Gy. CPA was added to the cells 3 h before IR for protection (FIG. 3A) or 1 h after IR for mitigation (FIG. 3B) activities.
Dose-responses of irradiated cells treated with cyclopiazonic acid (CPA) were determined. A cell viability assay with TiL1 cells was measured using ATPlite reagent 24 hours after irradiation with 2Gy. CPA was added to the cells 3 h before irradiation for protection (FIG. 3A), or 1 hour after irradiation mitigation (FIG. 3B) activities. The percent cell viability plotted was normalized to vehicle control value. As shown in FIGS. 3A and 3B CPA both protects and mitigates TiL1 cell from radiation damage.

mice = test: Animal survival against a lethal dose total body irradiation; assay type: in vivo
Experimental: as §1
The effect of CPA on animal survival against a lethal dose total body irradiation was determined. […] This effect was most prominent with CPA treatment at 6 mg/kg showing 89% survival while only 17% of controls survived.

Molecule	reduction of irradiation induced reactive oxygen species (TiL-1 cells)	Gm-CFU, protection of the immunohematopoietic system (bone marrow cells)	percent cell viability, mitigation activity (TiL1 cells; CPA added 1 hour after irradiation)	percent cell viability, protection activity (TiL1 cells; CPA added 3 h before irradiation)	survival (mice; 6 mg/kg oral, 24 h and 1 h prior to irradiation at 8 Gy, 17% of controls survived) [%]	protection from radiation-induced death (mice; two oral administrations at 24 h and 1 h prior to irradiation at 8 Gy)
cyclopiazonic acid [CPA]	did not reduce	protects the immunohematopoietic system	mitigates	protects	89	protected mice from radiation-induced death
CC(C)(C)c1cc(O)c(C(C)(C)C)cc1O [di-tBHQ, 2,5-ditertbutylhydroquinone, reference compound]	did in dose-responsive manner					

From US20100292193A1, “RADIOPROTECTIVE DRUGS” (THE REGENTS OF THE UNIVERSITY OF CALIFORNIA, priority 2009, published 2010)
